Data set [1] concerns 2019 novel coronavirus (SARS-CoV-2). Nature of the data set: Inhibition of 2019 novel coronavirus (SARS-CoV-2) replication in Vero E6 cells, virus copy number by qRT-PCR. It is filed as cell-based.
The nature of data set [2]: Cytotoxicity test on Vero E6 cells by CCK8 kit. It is filed as cell-based. The conditions noted are these: African green monkey. The protocol:
(§1) In this example, the median toxic concentration (CC50) of each example on Vero E6 cells was analysed and determined by CCK8 kit.

The test system of another data set is Vero E6 cells. Nature of the data set: Cytotoxicity test on Vero E6 cells by CCK8 kit. Format: cell-based. The protocol:
as §1

For another data set, the system named is SARS-CoV-2. The conditions noted are these: existing literature; cited from earlier work.
Setting [3] is: Severe acute respiratory syndrome coronavirus 2, Vero C1008, Vero E6 cells, MOI 0.01, 24 h p.i., qRT-PCR of supernatant.
Setting [4] is: Severe acute respiratory syndrome coronavirus 2, Vero C1008, 24 h.

Read-outs that look alike come from different tables or passages of the source.

Regarding `COc1cc2c3cc1Oc1c(OC)c(OC)cc4c1[C@@H](Cc1ccc(C#N)c(c1)Oc1ccc(cc1)C[C@@H]3N(C)CC2)N(C)CC4` [Compound 1], in data set [1] (setting [3]), the EC50 stood at 0.7 µM. The same molecule yielded a CC50 in data set [2] of 25.6 µM.
In data set [1] (setting [3]), `COc1cc2c3cc1Oc1c(OC)c(OC)cc4c1[C@@H](Cc1ccc(C=O)c(c1)Oc1ccc(cc1)C[C@@H]3N(C)CC2)N(C)CC4` [Compound 2] yielded an EC50 of 1.19 µM. In data set [2], this molecule gave a CC50 of 102 µM.
In the case of `COc1cc2c3cc1Oc1c(OC)c(OC)cc4c1[C@@H](Cc1ccc(CO)c(c1)Oc1ccc(cc1)C[C@@H]3N(C)CC2)N(C)CC4` [Compound 3], the concentration giving a half-maximal response (EC50) in data set [1] (setting [3]) worked out at 1.12 µM. The molecule further gave a CC50 in data set [2] of 70.5 µM.
With `CCCCNC(=O)Oc1ccc2cc1Oc1ccc(cc1)C[C@H]1c3cc(c(OC)cc3CCN1C)Oc1c(OC)c(OC)cc3c1[C@@H](C2)N(C)CC3` [Compound 4], it took 0.94 µM to reach a half-maximal effect in data set [1] (setting [4]) (EC50). In data set [2], this molecule registered a CC50 of 31.5 µM.
With `COc1cc2c3cc1Oc1c(OC)c(OC)cc4c1[C@@H](Cc1ccc(OC(=O)CCCC[C@H]5CCSS5)c(c1)Oc1ccc(cc1)C[C@@H]3N(C)CC2)N(C)CC4` [Compound 5], a half-maximal effect in data set [1] (setting [3]) (EC50) was put at 1.5 µM. The CC50 in data set [2] stood at 172 µM.
`COC(=O)c1ccc2cc1Oc1ccc(cc1)C[C@H]1c3cc(c(OC)cc3CCN1C)Oc1c(OC)c(OC)cc3c1[C@@H](C2)N(C)CC3` [Compound 8] returned an EC50 in data set [1] (setting [3]) of 0.36 µM. For the same molecule, the midpoint of cytotoxicity in data set [2], the CC50, lay at 31.4 µM.
On to `COc1cc2c3cc1Oc1c(OC)c(OC)cc4c1[C@@H](Cc1ccc(C(N)=O)c(c1)Oc1ccc(cc1)C[C@@H]3N(C)CC2)N(C)CC4` [Compound 9], for which a half-maximal effect in data set [1] (setting [3]) (EC50) was put at 0.55 µM. For the same molecule, the CC50 in data set [2] is 63.2 µM.
Turning to `COc1cc2c3cc1Oc1c(OC)c(OC)cc4c1[C@@H](Cc1cc(c5oc(=O)[nH]c5c1)Oc1ccc(cc1)C[C@@H]3N(C)CC2)N(C)CC4` [Compound 18], in data set [1] (setting [3]), the EC50 was determined as 0.9 µM. Besides, half-maximal cytotoxicity in data set [2] (CC50) was put at 14.7 µM.
In data set [1] (setting [3]), `COc1cc2c3cc1Oc1c(OC)c(OC)cc4c1[C@@H](Cc1ccc(C(C)=O)c(c1)Oc1ccc(cc1)C[C@@H]3N(C)CC2)N(C)CC4` [Compound 25] gave an EC50 of less than 2 µM. In addition, the CC50 in data set [2] stood at 29.4 µM.
Turning to `COc1cc2c3cc1Oc1c(OC)c(OC)cc4c1[C@@H](Cc1ccc(C(=O)NC5CCCC5)c(c1)Oc1ccc(cc1)C[C@@H]3N(C)CC2)N(C)CC4` [Compound 28], the EC50 in data set [1] (setting [3]) turned out to be 2.4 µM. The CC50 in data set [2] came to 22.5 µM.
`COc1cc2c3cc1Oc1c(OC)c(OC)cc4c1[C@@H](Cc1cc(cc([N+](=O)[O-])c1)Oc1ccc(cc1)C[C@@H]3N(C)CC2)N(C)CC4` [Compound 33] yielded an EC50 in data set [1] (setting [3]) of 0.63 µM. For the same molecule, the CC50 in data set [2] is 24.3 µM.
The molecule `COc1cc2c3cc1Oc1c(OC)c(OC)cc4c1[C@@H](Cc1cccc(c1)Oc1ccc(cc1)C[C@@H]3N(C)CC2)N(C)CC4` [Compound 39] yielded an EC50 in data set [1] (setting [3]) of 0.93 µM. Besides, in data set [2], the CC50 worked out at 17.1 µM.
For `C=C(C)c1ccc2cc1Oc1ccc(cc1)C[C@H]1c3cc(c(OC)cc3CCN1C)Oc1c(OC)c(OC)cc3c1[C@@H](C2)N(C)CC3` [Compound 40], in data set [1] (setting [3]), the EC50 was determined as 0.95 µM. In data set [2], the midpoint of cytotoxicity, the CC50, lay at 11.7 µM.
`COc1cc2c3cc1Oc1c(OC)c(OC)cc4c1[C@@H](Cc1ccc(C)c(c1)Oc1ccc(cc1)C[C@@H]3N(C)CC2)N(C)CC4` [Compound 41] displayed an EC50 in data set [1] (setting [3]) of 2.45 µM. Also, the CC50 in data set [2] was found to be 10.2 µM.
On the same counts, the results for `C=CC(=O)Nc1ccc2cc1Oc1ccc(cc1)C[C@H]1c3cc(c(OC)cc3CCN1C)Oc1c(OC)c(OC)cc3c1[C@@H](C2)N(C)CC3` [Compound 42] are less than 2 µM and 31.1 µM.
With `CCCCCNC(=O)c1ccc2cc1Oc1ccc(cc1)C[C@H]1c3cc(c(OC)cc3CCN1C)Oc1c(OC)c(OC)cc3c1[C@@H](C2)N(C)CC3` [Compound 43], the EC50 in data set [1] (setting [3]) is 2.09 µM. In data set [2], this molecule yielded a CC50 of 10.4 µM.
Molecule `COc1cc2c3cc1Oc1c(OC)c(OC)cc4c1[C@@H](Cc1ccc(C5CC5)c(c1)Oc1ccc(cc1)C[C@@H]3N(C)CC2)N(C)CC4` [Compound 44] showed an EC50 in data set [1] (setting [3]) of 2.25 µM. Besides, the CC50 in data set [2] was found to be 10.8 µM.
`COc1cc2c3cc1Oc1c(OC)c(OC)cc4c1[C@@H](Cc1ccc(C(C)O)c(c1)Oc1ccc(cc1)C[C@@H]3N(C)CC2)N(C)CC4` (stereo partly drawn) [Compound 46] came in with a concentration giving a half-maximal response (EC50) in data set [1] (setting [3]) of 1.02 µM. This molecule also returned a CC50 in data set [2] of 29.7 µM.
In data set [1] (setting [3]), `COc1cc2c3cc1Oc1c(OC)c(OC)cc4c1[C@@H](Cc1ccc(C(=O)N5CCCCC5)c(c1)Oc1ccc(cc1)C[C@@H]3N(C)CC2)N(C)CC4` [Compound 47] had an EC50 of less than 2 µM. Moreover, the CC50 in data set [2] is 24.6 µM.
Regarding `COc1cc2c3cc1Oc1c(OC)c(OC)cc4c1[C@@H](Cc1ccc(C(=O)NC5CC5)c(c1)Oc1ccc(cc1)C[C@@H]3N(C)CC2)N(C)CC4` [Compound 49], in data set [1] (setting [3]), the EC50 was less than 2 µM. This molecule also gave a CC50 in data set [2] of 62.3 µM.
For `COc1cc2c3cc1Oc1c(OC)c(OC)cc4c1[C@@H](Cc1ccc(C(=O)Nc5ccccc5)c(c1)Oc1ccc(cc1)C[C@@H]3N(C)CC2)N(C)CC4` [Compound 51] the same measures were less than 2 µM and 10.2 µM.
As for `CCCCNC(=O)Oc1c(OC)cc2c3c1Oc1cc4c(cc1OC)CCN(C)[C@H]4Cc1ccc(cc1)Oc1cc(ccc1OC)C[C@H]3N(C)CC2` [Compound 53], in data set [1] (setting [4]), the EC50 is less than 2 µM. Moreover, the CC50 in data set [2] stood at 22.2 µM.
In data set [1] (setting [3]), `COc1cc2c3cc1Oc1c(OC)c(OC)cc4c1[C@@H](Cc1ccc(C(=O)Nc5ccc(C(F)(F)F)cc5)c(c1)Oc1ccc(cc1)C[C@@H]3N(C)CC2)N(C)CC4` [Compound 54] displayed an EC50 of less than 2 µM. The CC50 in data set [2] is 10.5 µM.
`COc1cc2c3cc1Oc1c(OC)c(OC)cc4c1[C@@H](Cc1ccc(C(=O)NC(C)C)c(c1)Oc1ccc(cc1)C[C@@H]3N(C)CC2)N(C)CC4` [Compound 55] yielded an EC50 in data set [1] (setting [3]) of less than 2 µM. The same molecule gave a CC50 in data set [2] of 32 µM.
In turn, `COc1cc2c3cc1Oc1c(OC)c(OC)cc4c1[C@@H](Cc1ccc(C(=O)NC5CCC5)c(c1)Oc1ccc(cc1)C[C@@H]3N(C)CC2)N(C)CC4` [Compound 57] yielded an EC50 in data set [1] (setting [3]) of less than 2 µM. The molecule also yielded a CC50 in data set [2] of 33.9 µM.
Take `COc1cc2c3cc1Oc1c(OC)c(OC)cc4c1[C@@H](Cc1ccc(C(=O)Nc5cccnc5)c(c1)Oc1ccc(cc1)C[C@@H]3N(C)CC2)N(C)CC4` [Compound 58]: the EC50 in data set [1] (setting [3]) is less than 2 µM. For the same molecule, in data set [2], the CC50 was found to be 26.4 µM.
For `COc1ccc(NC(=O)c2ccc3cc2Oc2ccc(cc2)C[C@H]2c4cc(c(OC)cc4CCN2C)Oc2c(OC)c(OC)cc4c2[C@@H](C3)N(C)CC4)cc1` [Compound 59] the same measures were less than 2 µM and 10.6 µM.
In data set [1] (setting [3]), `COc1cc2c3cc1Oc1c(OC)c(OC)cc4c1[C@@H](Cc1ccc(C(=O)C5CC5)c(c1)Oc1ccc(cc1)C[C@@H]3N(C)CC2)N(C)CC4` [Compound 61] had an EC50 of less than 2 µM. Also, the midpoint of cytotoxicity in data set [2], the CC50, lay at 13.7 µM.
The molecule `COc1cc2c3cc1Oc1c(OC)c(OC)cc4c1[C@@H](Cc1ccc(C(=O)NCCOCCO)c(c1)Oc1ccc(cc1)C[C@@H]3N(C)CC2)N(C)CC4` [Compound 62] displayed an EC50 in data set [1] (setting [3]) of less than 2 µM. This molecule showed a CC50 in data set [2] of 123 µM.
`COc1cc2c3cc1Oc1c(OC)c(OC)cc4c1[C@@H](Cc1ccc(C(=O)OCCOCCO)c(c1)Oc1ccc(cc1)C[C@@H]3N(C)CC2)N(C)CC4` [Compound 65]: in data set [1] (setting [3]), the EC50 is less than 2 µM. The molecule further came in with a CC50 in data set [2] of 58.4 µM.
Molecule “Berbamine hydrochloride [reference compound]” yielded an EC50 in data set [1] of 14.5 µM. The CC50 in the data set with Vero E6 cells amounted to 29.9 µM. The “Anti-novel coronavirus effect (in words)” value in the data set with SARS-CoV-2 was “not strong”.

Values taken from patent US20240309012A1, “ISOQUINOLINE COMPOUND, MANUFACTURING METHOD THEREFOR, AND APPLICATION THEREOF” (priority 2020, published 2024).
